PMC5053523, “In Vitro Antibacterial Activity of Rhodanine Derivatives against Pathogenic Clinical Isolates” (PLoS ONE, 2016)
Converted amounts (≈) assume the structure as drawn. Where two headings read alike, the source gives them in different places.

Experiments:
[1] = system: vancomycin resistant enterococci (VRE) E. faecalis; test: Broth microdilution MIC/MBC, VRE E. faecalis; type: cell-based; details: for MIC: read-out: MIC
[2] = system: vancomycin resistant enterococci (VRE); test: Broth microdilution MIC50/MIC90, VRE panel; type: cell-based; details: Enterococcus, 10 VRE strains
[3] = system: Vancomycin Resistant Staphylococcus aureus (VRSA); test: Broth microdilution MIC/MBC, VRSA; type: cell-based; details: for MBC / MIC: VRSA
[4] = system: Bacillus anthracis; test: microbe, parasite or virus in culture; type: cell-based
[5] = system: B. licheniformis; test: Broth microdilution MIC/MBC, B. licheniformis; type: cell-based; details: Bacillus licheniformis; for MBC: read-out: MBC; for MIC: read-out: MIC
[6] = system: Clostridium difficile; test: MIC against Clostridium difficile, anaerobic broth dilution; type: cell-based; details: Clostridioides difficile
Outline: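 Clinical C. difficile isolates grown anaerobically 48 h at 37 °C, suspended to 0.5 McFarland and diluted 1:300 in pre-reduced supplemented Brain Heart Infusion broth. Compounds serially diluted; plates incubated anaerobically at 37 °C for 48 h. MIC = lowest concentration with no visible growth.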

[7] = system: Acinetobacter baumannii; test: Broth microdilution MIC, Acinetobacter baumannii; type: cell-based
[8] = system: MRSA USA300; test: MIC against MRSA USA300 with and without 4% human serum albumin; type: cell-based, Staphylococcus aureus; details: Staphylococcus aureus, read-out: MIC against MRSA USA300
Outline: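 MIC measured in tryptic soy broth spiked with 4% HSA and without it, using CLSI broth microdilution on MRSA USA300. Value reported is the lowest concentration preventing bacterial growth.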

[9] = system: Acinetobacter baumannii; test: MIC with/without PMBN, Acinetobacter baumannii; type: cell-based
Outline: (§1)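 Sub-MIC colistin or PMBN added to broth MIC tests of rhodanines and reference antibiotics against Gram-negative strains; AcrAB efflux-deficient E. coli SM1411ΔacrAB also tested.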

[10] = system: Salmonella Typhimurium; test: MIC with/without PMBN, Salmonella Typhimurium; type: cell-based
Outline: as §1

[11] = system: Klebsiella pneumoniae; test: MIC with/without PMBN, Klebsiella pneumoniae; type: cell-based
Outline: as §1

[12] = E. faecalis NR31972 Strain SF 28073
[13] = NCIB9375, B. licheniformis Gibson 46 (NCIB 9375) NR-2494
[14] = NRS712, B. licheniformis NRS 712 NR-2499

Structure (SMILES): O=C(O)[C@H](Cc1ccccc1)N1C(=O)/C(=C/c2cccc(-c3ccccc3)c2)SC1=S [Rh 5]
- MBC ([1]; E. faecalis ERV103 HM-934): 16 µM (≈ 7.13 µg/mL)
- MIC ([1]; E. faecalis ERV103 HM-934): 16 µM (≈ 7.13 µg/mL)
- MBC [1, 12]: 16 µM (≈ 7.13 µg/mL)
- MIC [1, 12]: 16 µM (≈ 7.13 µg/mL)
- MBC ([1]; E. faecalis R712 HM-335): 16 µM (≈ 7.13 µg/mL)
- MIC ([1]; E. faecalis R712 HM-335): 8 µM (≈ 3.56 µg/mL)
- MBC ([1]; E. faecalis S613 HM-334): 16 µM (≈ 7.13 µg/mL)
- MIC ([1]; E. faecalis S613 HM-334): 16 µM (≈ 7.13 µg/mL)
- MBC ([1]; E. faecalis TX0104 HM-201): 16 µM (≈ 7.13 µg/mL)
- MIC ([1]; E. faecalis TX0104 HM-201): 16 µM (≈ 7.13 µg/mL)
- MIC90 ([2]; VRE, read-out: MIC 90): 16 µM (≈ 7.13 µg/mL)
- MIC50 ([2]; read-out: MIC 50): 16 µM (≈ 7.13 µg/mL)
- MIC50 ([3]; 15 VRSA strains, read-out: MIC 50): 8 µM (≈ 3.56 µg/mL)
- MIC90 ([3]; 15 VRSA strains, read-out: MIC 90): 8 µM (≈ 3.56 µg/mL)
- MBC ([3]; VRSA 1, read-out: MBC): 16 µM (≈ 7.13 µg/mL)
- MIC ([3]; VRSA 1, read-out: MIC): 8 µM (≈ 3.56 µg/mL)
- MBC ([3]; VRSA 2, read-out: MBC): 8 µM (≈ 3.56 µg/mL)
- MIC ([3]; VRSA 2, read-out: MIC): 8 µM (≈ 3.56 µg/mL)
- MBC ([3]; VRSA 3a, read-out: MBC): 16 µM (≈ 7.13 µg/mL)
- MIC ([3]; VRSA 3a, read-out: MIC): 8 µM (≈ 3.56 µg/mL)
- MBC ([3]; VRSA 3b, read-out: MBC): 16 µM (≈ 7.13 µg/mL)
- MIC ([3]; VRSA 3b, read-out: MIC): 8 µM (≈ 3.56 µg/mL)
- MBC ([3]; VRSA 4, read-out: MBC): 16 µM (≈ 7.13 µg/mL)
- MIC ([3]; VRSA 4, read-out: MIC): 8 µM (≈ 3.56 µg/mL)
- MBC ([3]; VRSA 5, read-out: MBC): 16 µM (≈ 7.13 µg/mL)
- MIC ([3]; VRSA 5, read-out: MIC): 8 µM (≈ 3.56 µg/mL)
- MBC ([3]; VRSA 6, read-out: MBC): 16 µM (≈ 7.13 µg/mL)
- MIC ([3]; VRSA 6, read-out: MIC): 8 µM (≈ 3.56 µg/mL)
- MBC ([3]; VRSA 7, read-out: MBC): 32 µM (≈ 14.3 µg/mL)
- MIC ([3]; VRSA 7, read-out: MIC): 8 µM (≈ 3.56 µg/mL)
- MBC ([3]; VRSA 8, read-out: MBC): 16 µM (≈ 7.13 µg/mL)
- MIC ([3]; VRSA 8, read-out: MIC): 8 µM (≈ 3.56 µg/mL)
- MBC ([3]; VRSA 9, read-out: MBC): 16 µM (≈ 7.13 µg/mL)
- MIC ([3]; VRSA 9, read-out: MIC): 16 µM (≈ 7.13 µg/mL)
- MBC ([3]; VRSA 10, read-out: MBC): 16 µM (≈ 7.13 µg/mL)
- MIC ([3]; VRSA 10, read-out: MIC): 8 µM (≈ 3.56 µg/mL)
- MBC ([3]; VRSA 11a, read-out: MBC): 16 µM (≈ 7.13 µg/mL)
- MIC ([3]; VRSA 11a, read-out: MIC): 8 µM (≈ 3.56 µg/mL)
- MBC ([3]; VRSA 11b, read-out: MBC): 16 µM (≈ 7.13 µg/mL)
- MIC ([3]; VRSA 11b, read-out: MIC): 8 µM (≈ 3.56 µg/mL)
- MBC ([3]; VRSA 12, read-out: MBC): 16 µM (≈ 7.13 µg/mL)
- MIC ([3]; VRSA 12, read-out: MIC): 8 µM (≈ 3.56 µg/mL)
- MBC ([3]; VRSA 13, read-out: MBC): 16 µM (≈ 7.13 µg/mL)
- MIC ([3]; VRSA 13, read-out: MIC): 8 µM (≈ 3.56 µg/mL)
- MBC ([4]; Bacillus anthracis AMES35): 2 µM (≈ 0.891 µg/mL)
- MIC ([4]; Bacillus anthracis AMES35): 2 µM (≈ 0.891 µg/mL)
- MBC ([4]; Bacillus anthracis UM23): 2 µM (≈ 0.891 µg/mL)
- MIC ([4]; Bacillus anthracis UM23): 2 µM (≈ 0.891 µg/mL)
- MBC ([4]; Bacillus anthracis Weybridge): 4 µM (≈ 1.78 µg/mL)
- MIC ([4]; Bacillus anthracis Weybridge): 2 µM (≈ 0.891 µg/mL)
- MBC [5, 13]: 8 µM (≈ 3.56 µg/mL)
- MIC [5, 13]: 8 µM (≈ 3.56 µg/mL)
- MBC [5, 14]: 8 µM (≈ 3.56 µg/mL)
- MIC [5, 14]: 8 µM (≈ 3.56 µg/mL)
- MIC ([6]; C. difficile HM-88): 4 µM (≈ 1.78 µg/mL)
- MIC ([6]; C. difficile HM-745): 4 µM (≈ 1.78 µg/mL)
- MIC ([6]; C. difficile HM-746): 2 µM (≈ 0.891 µg/mL)
- MIC ([6]; C. difficile Isolate-1 NR-13427): 4 µM (≈ 1.78 µg/mL)
- MIC ([6]; C. difficile Toxigenic Strain P8 NR-32888): 4 µM (≈ 1.78 µg/mL)
- MIC ([7]; ATCC13345): > 128 µM
- MIC ([7]; ATCC17786): > 128 µM
- MIC ([8]; 24 h, Media TSB + 4% HSA): > 64 µM
- MIC ([8]; Media TSB): 16 µM (≈ 7.13 µg/mL)
- MIC ([9]; Acinetobacter baumannii ATCC BAA747, PMBN (+) 4 μg/mL, read-out: MIC): >64 µM
- MIC ([9]; Acinetobacter baumannii ATCC BAA19606, PMBN (+) 4 μg/mL, read-out: MIC): >64 µM
- MIC ([9]; Acinetobacter baumannii, ATCCBAA747): > 128 µM
- MIC ([9]; Acinetobacter baumannii, ATCCBAA19606): > 128 µM
- MIC ([10]; Salmonella Typhimurium ATCC 700720, PMBN (+) 4 μg/mL, read-out: MIC): >128 µM
- MIC ([10]; Salmonella enterica, ATCC 700720 / TYPHIMURIUM): > 128 µM
- MIC ([11]; Klebsiella pneumoniae ATCC BAA 1706, PMBN (+) 4 μg/mL): >64 µM
- MIC ([11]; Klebsiella pneumoniae ATCC BAA 2146, PMBN (+) 4 μg/mL): >64 µM
- MIC ([11]; Klebsiella pneumoniae, BAA1706): > 128 µM
- MIC ([11]; Klebsiella pneumoniae, BAA2146): > 128 µM
